The values below are quoted from earlier work in US7521425B2, “Anti-angiogenic compounds” (Covx Technologies Ireland Limited, priority 2005, dated 2009).

In one data set the target is m38C2. As to conditions: against immobilized BSA-conjugated β-diketone 1, read-out: apparent equilibrium dissociation constant.
Another data set concerns the target h38C2. As to conditions: against immobilized BSA-conjugated β-diketone 1, read-out: apparent equilibrium dissociation constant.

With `CC(=O)CC(=O)CCc1ccccc1` [β-diketone 3], the results for the Kd at m38C2 and on h38C2 were 0.43 µM and 1 µM, respectively.
Turning to `CC(=O)CC(C)=O` [β-diketone 2], the Kd at m38C2 was 38 µM; on h38C2, 7.6 µM.
